Measurements taken from article PMC12040169 (PLOS Biology, 2025).

Experiment: in vitro
Details: human, hela cells, % viability

Compound | viability at 28.5 h, 10 µM [%]
CCCn1nc(C)c(-c2cncn2CCn2nc(C)c(C)c2C)c1C [CBK281444] | 83.5
Cc1noc(C)c1CC(=O)NC(C)c1cc2cc(Cl)ccc2o1 (stereo not shown) [CBK281445] | 90.1
Cc1cnn(CC(=O)NC(C)c2cc3cc(Cl)ccc3o2)c1 (stereo not shown) [CBK281447] | 90.2
Cc1nn(C)c(C)c1CN(C(=O)c1ccc(C)n(C)c1=O)C1CC1 [CBK281450] | 105
Cn1c(=O)cc(Oc2ccc(F)cc2)c2ccccc21 [CBK281451] | 88.1
OC(CN1CCC(Oc2cccc(F)c2)CC1)c1cccs1 (stereo not shown) [CBK281453] | 88.8
CC(CC(=O)NC(c1ccc(F)cc1)c1nccn1C)n1cccn1 (stereo not shown) [CBK281454] | 93.7
O=C(Cn1ccnc1)Nc1ccccc1Oc1ccc(F)cc1 [CBK281455] | 90.1
Cc1cccc(OCCn2cncc2-c2cn(C)nc2C)c1C [CBK281458] | 112
CCC(CN1CCCC1)n1cncc1-c1cn(C)nc1C (stereo not shown) [CBK281459] | 102
CCC(CN1CCCCC1)n1cncc1-c1cn(C)nc1C (stereo not shown) [CBK281460] | 96.9
O=C(Nc1ccc(N2CCCC2)c(F)c1)C1CC(=O)N(C2CC2)C1 (stereo not shown) [CBK281461] | 100
O=C(Cc1ccc2c(c1)CCCO2)NCc1ccccc1-n1ccnc1 [CBK281463] | 86.6
c1ccc(-c2n[nH]cc2-c2cncn2CCCN2CCCCC2)cc1 [CBK281464] | 90.4
CC(C)(CO)CCCn1cncc1-c1cnn(-c2ccc(F)cc2)c1 [CBK281466] | 117
Cc1cc(C)n(C(C)CC(=O)NC(C)c2nc3ccccc3s2)n1 (stereo not shown) [CBK281469] | 93.2
CC(=O)N1CCc2cc(NC(=O)c3cc4cc(C)ccc4o3)ccc21 [CBK281470] | 86.2
CC(=O)N1CCc2cc(NC(=O)Cn3ccnc3C(C)C)ccc21 [CBK281471] | 90.1
Cc1nccn1CCC(=O)Nc1ccccc1Oc1ccc(F)cc1 [CBK281473] | 91.9
O=C(CCn1cccn1)NCC1CCCOC1 (stereo not shown) [CBK281474] | 110
CCCn1nc(C)c(-c2cncn2CCc2c(C)nn(C)c2C)c1C [CBK281475] | 91.5
Cc1nc(C)c(CC(=O)N(C)CC2OCCc3ccccc32)s1 (stereo not shown) [CBK281478] | 90.9
O=C(Cn1ccnc1)NC(c1ccc(Cl)cc1)c1cccnc1 (stereo not shown) [CBK281481] | 99.2
CCc1cc(C(=O)NC(c2ccncc2)c2cccs2)n(C)n1 (stereo not shown) [CBK281482] | 109

Compound | viability at 28.5 h, 10 µM [%]
Cn1ccnc1C(NC(=O)[C@@H]1C[C@@H]2C=C[C@H]1C2)c1ccc(F)cc1 (stereo partly shown) [CBK281483] | 95.5
Cc1nn(C)cc1-c1cncn1Cc1cccc(OC(C)C)c1 [CBK281484] | 95.3
Cc1cc(CNC(=O)CCn2ccc(C)n2)on1 [CBK281485] | 97.3
Cc1cc(CNC(=O)C(C)Cn2cccn2)on1 (stereo not shown) [CBK281486] | 90.9
Cc1cc(CNC(=O)Cn2nc(C)c(C)c2C)on1 [CBK281487] | 95.1
CC(NC(=O)c1n[nH]c2c1CCC2)c1cccnc1 (stereo not shown) [CBK281488] | 93.7
c1ccc(Cn2cc(-c3cncn3CCCN3CCCCC3)cn2)cc1 [CBK281491] | 91.4
Cc1nn(C)cc1-c1cncn1CCCN1CCCCC1 [CBK281493] | 96
O=C(CCCn1ccnc1)NCC1(c2cccc(F)c2)CCCC1 [CBK281500] | 88.5
O=C(C1CC2C=CC1C21CC1)N1CCC(Oc2cccnc2)CC1 (stereo not shown) [CBK281501] | 101
Cc1ccc(S(=O)(=O)NCCn2nc(C)c(C)c2C)s1 [CBK281502] | 86.7
O=C(NCc1ccc2c(c1)CCCO2)C1CC2C=CC1C21CC1 (stereo not shown) [CBK281503] | 89.1
CC(O)(c1ccncc1)c1nccs1 (stereo not shown) [CBK281504] | 90.1
CC(C)Cc1cc(CNS(=O)(=O)Cc2ccccc2F)on1 [CBK281505] | 96.6
Cc1cc(C)c(C)c(OCCCNC(=O)Cc2c(C)noc2C)c1 [CBK281506] | 100
Cc1noc(C)c1CC(=O)NC(CN1CCCCC1)c1ccccc1 (stereo not shown) [CBK281507] | 89.1
COc1ccc(N2CC(C(=O)N(C)CC(F)(F)F)CC2=O)cc1 (stereo not shown) [CBK281510] | 98.2
Cc1noc(C)c1CC(=O)NC(C)CCc1ccc(F)cc1 (stereo not shown) [CBK281511] | 89.8
O=C(C1CC2C=CC1C21CC1)N1CCCC(c2nc3ccccc3[nH]2)C1 (stereo not shown) [CBK281513] | 91.4
CC1CCc2onc(C(=O)NCc3nccn3C)c2C1 (stereo not shown) [CBK281514] | 68.9
Cc1cc(C)n(C(C)CC(=O)NCc2ccccc2-n2ccnc2)n1 (stereo not shown) [CBK281518] | 84.3
CC1Oc2ccc(NC(=O)C3CC4C=CC3C43CC3)cc2NC1=O (stereo not shown) [CBK281523] | 101
CC(C)Cc1cc(CNC(=O)C(C)n2cc(Cl)cn2)on1 (stereo not shown) [CBK281524] | 92.8
O=C(C1CC2C=CC1C21CC1)N1CCC(Oc2cccc(F)c2)CC1 (stereo not shown) [CBK281525] | 85.4

Compound | viability at 28.5 h, 10 µM [%]
CCN1CC(C(=O)Nc2nc3c(s2)CCCCCC3)CC1=O (stereo not shown) [CBK281526] | 84.2
COc1ccc2[nH]c3c(c2c1)CN(C(=O)CCC1CCCO1)CC3 (stereo not shown) [CBK281530] | 99.7
Cc1cccc(OCC2CCCN(C(=O)Cn3cc(C)cn3)C2)c1 (stereo not shown) [CBK281531] | 89.9
CCCn1ncc(C(=O)NC(C)c2c(C)nn(CC)c2C)c1C (stereo not shown) [CBK281532] | 85.5
CCn1nc(C)c(C(C)NC(=O)c2ccnn2C(F)F)c1C (stereo not shown) [CBK281535] | 88.4
Cc1[nH]c2ccc(CNC(=O)Cn3ccnc3C(C)C)cc2c1C [CBK281540] | 87.6
CC(C)(C)OC(=O)N1CCc2[nH]nc(Nc3ccccc3)c2C1 [CBK281541] | 80
O=C([C@@H]1C[C@@H]2C=C[C@H]1C2)N1CCC(c2noc3cc(F)ccc23)CC1 [CBK281542] | 76.5
CCn1cc(CN2CCN(C(=O)C3C4CCCCC43)CC2)c(C)n1 (stereo not shown) [CBK281545] | 97.1
CCCn1c(C)cc2cc(NC(=O)Cn3cc(C)nn3)ccc21 [CBK281548] | 104
O=C(NCC1(c2ccccc2F)CCOCC1)[C@@H]1C[C@@H]2C=C[C@H]1C2 [CBK281552] | 91.6
CCOc1ccc2c(c1)cc(C(=O)NCc1cc(CC)no1)n2C [CBK281553] | 95.5
CCc1cc(CNC(=O)c2cc(C)nc3c(C)cccc23)on1 [CBK281554] | 108
CCc1cc(CNC(=O)c2ccc(C)c(-n3nc(C)cc3C)c2)on1 [CBK281557] | 91.7
Cc1nc(C)n(CC(=O)NCCCc2ccc(Cl)cc2)n1 [CBK281559] | 90.9
Cc1cc(C)n(CC(=O)NCCCc2ccc(Cl)cc2)c(=O)n1 [CBK281561] | 96.3
CC(=O)N1CCC[C@@H](N)[C@@H]1c1ccccc1F [CBK281562] | 111
N[C@@H]1CCCN(C(=O)C2CC2)[C@H]1c1ccccc1F [CBK281563] | 97
Cc1ccc(C(=O)NCCCc2ccc(Cl)cc2)c(=O)n1C [CBK281567] | 80.4
CCn1nc(C)c(-c2cncn2CCN(C)C2CCCC2)c1C [CBK281569] | 109
CCN1CCc2cc(-c3cncn3CCCn3nc(C)cc3C)ccc21 [CBK281572] | 104
COc1ccc2oc(C(=O)NC(C)c3cn(C)nc3C)cc2c1 (stereo not shown) [CBK281573] | 90.9
Cn1nc(-c2ccc(F)cc2)cc1C(=O)NCCn1ccnc1 [CBK281576] | 87.8
CC(C)(C)OC(=O)N1CCCC1C1COc2ccccc2C1=O (stereo not shown) [CBK281579] | 89.2

Compound | viability at 28.5 h, 10 µM [%]
CC(C)(C)C1CCc2onc(C(=O)NCCn3ccnc3)c2C1 (stereo not shown) [CBK281581] | 87.1
O=C(NCCn1ccnc1)C1CC(=O)N(c2cccc(F)c2)C1 (stereo not shown) [CBK281582] | 105
Cn1c(C(=O)Nc2ccc(Cn3cncn3)cc2)cc2cc(F)ccc21 [CBK281584] | 104
Cc1nccn1CCCNC(=O)c1ccc(N2CCCC2)cc1 [CBK281589] | 81.6
CCc1cc(CNC(=O)C(c2ccccc2)N2CCC(C)CC2)on1 (stereo not shown) [CBK281592] | 92.4
Cc1cc(C)n(C(C(=O)NCCOc2ccc(F)cc2)C(C)C)n1 (stereo not shown) [CBK281595] | 81.4
O=C(NCCOc1ccc(F)cc1)c1cccc(-n2cccn2)c1 [CBK281596] | 101
CC(C)c1nccn1CC(=O)NCCOc1ccc(F)cc1 [CBK281597] | 89.6
CC1CCCN(CC(C)(C)NC(=O)c2cc(C(F)(F)F)nn2C)C1 (stereo not shown) [CBK281598] | 87.9
CC1(NC(=O)c2cccc(OCCN3CCCC3=O)c2)CCC1 [CBK281602] | 92.8
COc1nn(CC(=O)NC2(C)CCC2)c(=O)c2ccccc12 [CBK281603] | 83.2
CC1(NC(=O)CC(c2ccncc2)c2c[nH]c3ccccc23)CCC1 (stereo not shown) [CBK281610] | 88.8
O=C(c1cc2c(F)cccc2[nH]1)N1CCCCC1CCN1CCCC1 (stereo not shown) [CBK281612] | 85.7
CCn1c(CN2CCC(n3nc(C)cc3C)CC2)nc2ccccc21 [CBK281615] | 88.5
Cc1ccn2c(CN3CCC(n4nc(C)cc4C)CC3)c(C)nc2c1 [CBK281616] | 83.6
Cc1cc(C)n(C2CCN(Cc3c(C)nc4c(C)cccn34)CC2)n1 [CBK281617] | 101
Cc1cc(C)n(C2CCN(Cc3nc4ccccc4n3C)CC2)n1 [CBK281621] | 84.3
Cc1cc(C)n(C2CCN(Cc3ccc4ccccc4n3)CC2)n1 [CBK281622] | 87.9
CCn1cc(-c2cncn2CCOc2ccc(C)cc2)cn1 [CBK281623] | 88.5
CC(NC(=O)CCc1ccncc1)c1ccc2c(c1)CCCO2 (stereo not shown) [CBK281624] | 88.3
Cc1ccn(CCNC(=O)C(C)Cc2cccs2)n1 (stereo not shown) [CBK281625] | 106
COc1ccc(CCNC(=O)c2cc3c([nH]c2=O)CCC3)cc1C [CBK281627] | 83.2
